Read-outs that look alike come from different tables or passages of the source.
Tests used:
[1] = Protocol: FIGS. 30-32 illustrate different transdermal membrane materials being tested with different solvents and solvent compositions. Solutions of water and different alcohols, including isopropanol, ethanol, and methanol were tested. The water to alcohol content was varied between 0/100 and 100/0 (by v/v) and tested with different membrane materials. For the tests 1.6 mL of solution was injected into the area between the transdermal membrane and the vapor permeable membrane. […] The membranes were observed approximately 90 seconds after providing the solvent solution to the space between the transdermal membrane and the vapor permeable membrane. […] Three different transdermal membrane materials were tested including Celgard® 2400 (FIG. 30), Celgard® 2500 (FIG. 31), and Celgard® 3501 (FIG. 32). Celgard® 2400 has an average pore diameter of about 0.041 μm and a porosity of 41%. Celgard® 2500 has an average pore diameter of about 0.064 μm and a porosity of 55%. Celgard® 3501 has an average pore diameter of about 0.064 μm and a porosity of 55%.
[2] = Wetting and permeation of solvent solutions across the transdermal membrane (FIG. 31); assay type: physicochemical; conditions: Celgard® 2500; 1.6 mL of solution injected between transdermal membrane and vapor permeable membrane; observed approximately 90 seconds after; v/v

Row | permeation of the solvent solution across the membrane [2] | Structure (SMILES) | permeation of the solvent solution across the membrane [1]
1 |  | O [100% water, water] | no permeation
2 | Some permeation | CO [100% methanol, methanol] | Some permeation
